Data from PubChem BioAssay AID1993 (NMMLSC, 2009).
The source made the active and inactive calls.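 Rule for the calls: active = fluorescence area over time at least a quarter above or below the solvent control area (some results past the limit were not filed as active); inactive = the rest.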

Tested on: U937 FPR-DeltaST, VLA-4 LDV-FITC binding, flow cytometry
Experiment: FPR-triggered VLA-4 ligand binding change in U937, RGS protein inhibitor project, cell-based, U937 FPR-DeltaST, LDV-FITC, flow cytometry (AID 1993)
Conditions: at 10 µM; active compounds read high

Compound | AUC
CC(NC(=O)c1sc2cc([N+](=O)[O-])ccc2c1Cl)C(C)(C)C (configuration not stated) | 29100
COc1ccc(OC)c(CCNC(=O)Cn2sc3nc(C)cc(C)c3c2=O)c1 | 26600
O=C1C(Cl)=C(N2CCCCC2)C(=O)C(Cl)=C1c1cnc(N2CCCCC2)s1 | 2540 (inactive)
Cc1ccc(NC(=O)Cn2sc3nc(C)cc(C)c3c2=O)c(Cl)c1 | 23500 (inactive)
NS(=O)(=O)c1ccc(N/N=C/c2ccc(O)c(O)c2O)c([N+](=O)[O-])c1 | 20500 (inactive)
O=c1c2ccccc2sn1-c1cc(S(=O)(=O)N2CCOCC2)ccc1N1CCCC1 | 19600 (inactive)
Cc1cc(C)c2c(=O)n(CC(=O)Nc3cccc(F)c3)sc2n1 | 25000 (inactive)
O=c1c2ccccc2sn1-c1ccccc1 | 18300 (inactive)
Cc1cc(C)c2c(=O)n(CC(=O)Nc3ccc(Cl)cc3)sc2n1 | 22800 (inactive)
O=C(NCCCN1CCOCC1)c1sc2cc([N+](=O)[O-])ccc2c1Cl | 27100
CCN(CC)S(=O)(=O)c1cccc(C(=O)N/N=C/c2ccc(O)c(O)c2O)c1 | 26500
CCOC(=O)C1CCCN(C(=O)Cn2sc3nc(C)cc(C)c3c2=O)C1 (configuration not stated) | 27900
O=c1c2ccccc2sn1-c1ccc(S(=O)(=O)N2CCCC2)cc1 | 19400 (inactive)
Cc1[nH]n(-c2ccccc2)c(=S)c1C=Nc1cccc([N+](=O)[O-])c1 | 26500
Cc1cccc(N2CCN(C(=O)Cn3sc4nc(C)cc(C)c4c3=O)CC2C)c1 (configuration not stated) | 25500
CCC(=O)NC1=C(Cl)C(=O)C(NC(=O)CC)=C(Cl)C1=O | 11600 (inactive)
Nc1c(C(=O)NCC2CCCO2)sc2nc3c(c(-c4ccco4)c12)CC/C3=C\c1ccco1 (configuration not stated) | 455 (inactive)
